Reference: patent publication US20230338340A1, “Methods of Treating Cystic Fibrosis” (The Trustees of Dartmouth College, priority 2020, published 2023)
Like-named read-outs stand apart in the source and are kept apart here.

Target: T1, Human-Dab2-DH (Homo sapiens, UniProt P98082)
T1 construct: fused on or other part: N-terminal 10xHis tag with a 3C protease site, cleaved off unless otherwise indicated
T1 sequence (P98082 33-178 limits assumed): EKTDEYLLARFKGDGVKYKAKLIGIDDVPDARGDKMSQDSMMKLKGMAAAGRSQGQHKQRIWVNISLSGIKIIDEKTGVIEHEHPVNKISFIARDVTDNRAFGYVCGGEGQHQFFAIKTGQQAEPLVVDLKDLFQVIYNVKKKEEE
Experiment: Dab2 FP competition assay via HTS
Format: binding
Procedure: CALP and/or Dab2 inhibition assays were performed in biochemical “mix-and-measure” format in order to evaluate the effects on activation and inhibition of CALP and/or Dab2 by the compounds of the disclosure. Brief assay procedure is provided below. Unless otherwise specified, all of the compounds were obtained from commercial sources.
Dab-2 inhibitors were also identified by FP competition assays via HTS. Human-Dab2-DH, residues 31-191 (Uniprot: P98082), and trDab2-DH (residues 33-178) was subcloned into the pET16b vector via PCR utilizing the restriction enzyme sites of Xhol and BamHI. The construct was designed with a 3C protease cleavage site directly upstream and in-frame with the protein coding sequence. DNA was sequence verified. (0.1 mM) IPTG was used to induce protein expression in E. coli BL21(DE3)RIL cells, after reaching an O.D. of […]. […] Followed by 3C cleavage of the 10×His tag (unless otherwise indicated), and a second nickel affinity column to remove the 3C protease and excess tag. Dab2-DH was dialyzed into FP storage buffer (25 mM Tris pH 8.0, 150 mM NaCl, 0.1 mM TCEP, and 0.02% sodium azide). Fluorescent reporter peptides, TIVR*STA02 (TMR*-[…]) and TMR*STA03 (TMR*-[…]), were purchased commercially with the following sequence where TMR* denotes a N-terminal tetramethylrhodamine group coupled via an aminohexanoic acid linker. An unlabled positive control peptide STA02 ([…]) was also purchased commercially. Inhibitors of Dab2-DH were identified from a variety of sources with various protocols outlined below.
For screens conducted at the Novartis Institutes for BioMedical Research FAST Lab, single-dose HTS assays were performed with libraries comprising ˜52,000 compounds at 20 μM doses. Experiments were conducted as described for screens at the University of Pittsburgh Lab and Drug Discovery Institute, except that Dab2-DH, not trDab2-DH, was used as the protein source.
For screens conducted at the Broad Institute, compound transfers were done using a 384-well pin tool equipped with 100 nL hydrophobic surface coated pins. 100 nL of DMSO (negative control), STA02 (positive control), or library compounds were dispensed into 20 μL of protein (200 nM) and reporter (F*-STA02, 30 nM) mixture with 0.1 mg/ml mouse IgG and 0.5 mM Thesit. Final concentrations in the mixture were DMSO ([…]), STA02 (20 μM), and compounds (18 μM). Plates were incubated for 35-45 minutes before measuring polarization. Compounds were tested in duplicates on two separate plates. Positive and negative controls were included in each individual plate.
For experiments conducted at the University of Pittsburgh Lab and Drug Discovery Institute, single-dose HTS assays were performed with a library containing ˜220,000 compounds. On the day of screening, a master mix of equal parts trDab2-DH (900 nM) and TMP-STA03 (90 nM) was prepared. Compound plates containing assay ready 2 μL aliquots of a 1 mM stock solution in DMSO were thawed, reconstituted in FP buffer to a concentration of 30 μM in 3% DMSO, and five μL transferred to low volume assay plates using a Perkin Elmer MDT. Ten μL of master mix were added by a Microflo bulk liquid dispenser (Biotek, Winooski, VT) and processed as described in the general protocol above. Each plate contained 32 wells of positive (Dab2-DH+probe+DMSO) and negative (Dab2-DH+probe +10 μM STA03) controls. Plates were read at 1.5-h and 4-h on the Envision multilabel reader.

[1] = read-out: Inhibitory activity Dab2 IC50

Row | Structure (SMILES) | IC50 [1] [µM] | also measured
1 | CC1(C)Cc2ccccc2-c2n[nH]c(=S)n21 [Example 13, 5,5-dimethyl-5,6-dihydro-[1,2,4]triazolo[3,4-a]isoquinoline-3(2H)-thione] |  | Inhibitory activity Dab2 at Cmax (at Cmax, cells printed with %): ~−95%
2 | CC(C)c1cc2c(c(O)c1O)C13CCCC(C)(C)C1CC2OC3=O (stereo not drawn) [Example 16, 5,6-dihydroxy-7-isopropyl-1,1-dimethyl-1,3,4,9,10,10a-hexahydro-2H-9,4a-(epoxymethano)phenanthren-12-one] | 6.89 | 
3 | O=C1C=C(O)c2c(O)cc(O)cc2C1=O [Example 17, 4,5,7-trihydroxynaphthalene-1,2-dione] | 8.29 | 
4 | CC(=O)C1=C(O)[C@@]2(O)C(=O)c3c(c(C)c4ccc(C)c(O)c4c3O)C[C@H]2[C@@H](N)C1=O [Example 18, (1R,4aR,12aS)-3-acetyl-1-amino-4,4a,6,7-tetrahydroxy-8,11-dimethyl-12,12a-dihydrotetracene-2,5(1H,4aH)-dione] | 8.86 | 
5 | COC1=CC(=O)C(O)=C/C1=C\C=C\c1ccccc1 [Example 19, (E)-2-hydroxy-5-methoxy-4-((E)-3-phenylallylidene)cyclohexa-2,5-dien-1-one] | 7.73 | 
6 | COc1c(O)c2c(=O)cc(OC)c3c4c(OC)cc(=O)c5c(O)c(OC)c(CC(C)OC(=O)c6ccccc6)c(c(c1CC(C)OC(=O)Oc1ccc(O)cc1)c23)c54 (stereo not drawn) [Example 20, 1-(3,10-dihydroxy-12-(2-(((4-hydroxyphenoxy)carbonyl)oxy)propyl)-2,6,7,11-tetramethoxy-4,9-dioxo-4,9-dihydroperylen-1-yl)propan-2-yl benzoate] |  | IC50: 0.51 µM
7 | COc1ccc(C(=O)C(=O)Nc2ccccc2)c(O)c1 [Example 21, 2-(2-hydroxy-4-methoxyphenyl)-2-oxo-N-phenylacetamide] | 0.94 | 
8 | Cc1cc(O)c(O)c(Oc2cc(C)cc(O)c2O)c1 [Example 22, 6,6′-oxybis(4-methylbenzene-1,2-diol)] | 0.77 | 
9 | Cc1cc(O)c(Oc2cc(C)cc(O)c2O)c(O)c1 [Example 23, 3-(2,6-dihydroxy-4-methylphenoxy)-5-methylbenzene-1,2-diol] | 0.89 | 
10 | CC1=C(O)C(=O)C=C2C1=CC=C1[C@@]2(C)CC[C@@]2(C)[C@@H]3C[C@](C)(C(=O)O)CC[C@]3(C)CC[C@]12C [Example 24, (2R,4aS,6aS,12bR,14aS,14bR)-10-hydroxy-2,4a,6a,9,12b,14a-hexamethyl-11-oxo-1,2,3,4,4a,5,6,6a,11,12b,13,14,14a,14b-tetradecahydropicene-2-carboxylic acid] | 0.66 | 
11 | O=C(/C=C/c1ccc(O)c(O)c1)OC(Cc1ccc(O)c(O)c1)C(=O)O (stereo not drawn) [Example 25, (E)-3-(3,4-dihydroxyphenyl)-2-((3-(3,4-dihydroxyphenyl)acryloyl)oxy)propanoic acid] | 3.22 | 
12 | Cc1occ2c1C(=O)c1c(O)ccc(O)c1C2 [Example 26, 5,8-dihydroxy-3-methylnaphtho[2,3-c]furan-4(9H)-one] | 0.69 | 
13 | CC1CCCCCCCCCC(OC(=O)CCC(=O)O)C(=O)/C=C/C(=O)O1 (stereo not drawn) [Example 27, (E)-4-((16-methyl-2,5-dioxooxacyclohexadec-3-en-6-yl)oxy)-4-oxobutanoic acid] | 3.85 | 
14 | COC(=O)C1=COC(OC2OC(CO)C(O)C(O)C2O)C2C(CO)=CCC12O (stereo not drawn) [Example 28, methyl 4a-hydroxy-7-(hydroxymethyl)-1-((3,4,5-trihydroxy-6-(hydroxymethyl)tetrahydro-2H-pyran-2-yl)oxy)-1,4a,5,7a-tetrahydrocyclopenta[c]pyran-4-carboxylate] | 0.39 | 
15 | CC[N+](C)(CC)CCC[n+]1c(-c2ccccc2)c2cc(N)ccc2c2ccc(N)cc21 [Example 29, 3,8-diamino-5-(3-(diethyl(methyl)ammonio)propyl)-6-phenylphenanthridin-5-ium bromide] | 9.41 | 
16 | CN(C)[C@@H]1C(=O)C(C(N)=O)=C(O)[C@@]2(O)C(=O)C3=C(O)c4c(O)cccc4[C@@](C)(O)[C@H]3[C@H](O)[C@@H]12 [Example 30, (4S,4aR,5S,5aR,6S,12aR)-4-(dimethylamino)-1,5,6,10,11,12a-hexahydroxy-6-methyl-3,12-dioxo-3,4,4a,5,5a,6,12,12a-octahydrotetracene-2-carboxamide] |  | IC50: 6.02 µM
17 | CC(C)c1cc2c(c(O)c1O)[C@@]13CCCC(C)(C)[C@@H]1C[C@@H]2OC3=O [Example 31, (4aR,9S,10aS)-5,6-dihydroxy-7-isopropyl-1,1-dimethyl-1,3,4,9,10,10a-hexahydro-2H-9,4a-(epoxymethano)phenanthren-12-one] | 5.37 | 
18 | C=C1C(=O)OC2C(=O)OC(CCCCCCCCCC)C12 (stereo not drawn) [Example 32, 4-decyl-3-methylenedihydrofuro[3,4-b]furan-2,6(3H,4H)-dione] | 5.22 | 
19 | CC1OC2CC(=O)OC2C2=C1C(=O)c1c(O)cccc1C2=O (stereo not drawn) [Example 33, 7-hydroxy-5-methyl-3,3a,5,11b-tetrahydro-2H-benzo[g]furo[3,2-c]isochromene-2,6,11-trione] | 8.02 | 
20 | O=C1c2c(O)c(Cl)cc3c2[C@@]2(Oc4ccc(O)c5c4[C@]3(O2)[C@@H]2O[C@@H]2C5=O)[C@@H]2O[C@H]12 [Example 34, (1aR,1bS,5aS,6aR,6bS,11aS)-3-chloro-4,10-dihydroxy-1a,5a,6a,11a-tetrahydro-5H,11H-1b,6b-epoxyoxireno[2′,3′:2,3]naphtho[1,8-bc]oxireno[2′,3′:2,3]naphtho[1,8-ef]oxepine-5,11-dione] | 2.99 | 
21 | COc1c(O)cc(C(C)C(C)=O)c(O)c1OC (stereo not drawn) [Example 35, 3-(2,5-dihydroxy-3,4-dimethoxyphenyl)butan-2-one] | 1.17 | 
